Assay results reported in article PMC8284004, “Electrospun wound dressings containing bioactive natural products: physico-chemical characterization and biological assessment” (Biomaterials Research, 2021).
Read-outs that look alike come from different tables or passages of the source. Marks after values point to notes of the source that are not given here.

Columns and labels:
[1] = tested on: human gingival fibroblasts; design: method as in PMID 31574951; conditions: at 1 μΜ ref 39; cited from earlier work
[2] = n-octanol/water (1:1, v/v) ref Ordoudi et al. [24]; cited from earlier work
Hs27 fibroblasts = assay: SAR study of A/S derivatives on Hs27 metabolic activity (MTT); conditions: for Effect on Hs27 cell viability: 24 h, MTT, vs untreated cells
Protocol: (§1) In this regard, each compound was first dissolved in DMSO and further diluted with DMEM up to the desired concentrations (< 0.1% v/v DMSO to avoid toxicity). […] After the respective incubation times, the metabolic activity was evaluated by MTT assay as described in the previous section. Untreated cells served as controls.

S. epidermidis LMG 10474 = assay: Kirby-Bauer disc diffusion; format: cell-based, Staphylococcus epidermidis; conditions: for Inhibition zone: 53 μM/disc (30 μg/disc for dimeric A/S, 15 μg/disc for shikonin and alkannin); for zone of inhibition at 30 µg/disc: Staphylococcus epidermidis
Protocol: (§2) The antibacterial activity of neat and A/S mixture-loaded fibrous scaffolds was evaluated against the Gram-positive strains, Staphylococcus epidermidis LMG 10474 and S. aureus LMG 8224, implementing the Kirby-Bauer disc diffusion method. The bacteria were cultured onto nutrient agar plates (24 h at 37 °C) and then a dense bacterial suspension was made by transferring a small portion of staphylococci (10 μL) with an inoculating loop to 1 mL of sterile PBS. Next, 100 μL of this suspension were spread to Mueller-Hinton (MH) agar plates for conducting the test. UV-sterilized nanofibers with an average diameter of 8 mm were placed on the surface of inoculated MH plates. The plates were incubated for a period of 24 h at 37 °C. […] After 24 h, the antibacterial activity was evaluated by measuring the inhibition zone of the bacteria in millimeters.

S. aureus LMG 8224 = assay: Kirby-Bauer disc diffusion; format: cell-based, Staphylococcus aureus; conditions: for Inhibition zone: 53 μM/disc (30 μg/disc for dimeric A/S, 15 μg/disc for shikonin and alkannin); for zone of inhibition at 30 µg/disc: Staphylococcus aureus
Protocol: as §2

human skin fibroblasts = tested on: human skin fibroblasts; design: method as in PMID 25234005; conditions: non-selective toxicity towards normal cell lines ref 42; cited from earlier work
S. aureus = tested on: S. aureus; design: method as in PMID 760130, PMID 5066306; conditions: cited from earlier work
[3] = tested on: granuloma tissue in Wistar rats; design: method as in PMID 9586574; conditions: dose-dependent ref 41; cited from earlier work
keratinocytes = tested on: keratinocytes; design: method as in PMID 27725239; conditions: at 1.5 and 3 μΜ ref 40; cited from earlier work
[4] = SAR study of A/S derivatives on Hs27 metabolic activity (MTT); conditions: human
Protocol: as §1

S. epidermidis = tested on: S. epidermidis; design: method as in PMID 760130, PMID 5066306; conditions: cited from earlier work
[5] = LMG10474, 30 μg/disc on 8 mm filter paper, 24 h, read-out: Zone of inhibition
[6] = LMG8224, 30 μg/disc on 8 mm filter paper, 24 h, read-out: Zone of inhibition

SMILES | Log P [2] | Effect on Hs27 cell viability (Hs27 fibroblasts; 1 μM) | Inhibition zone (S. epidermidis LMG 10474) | zone of inhibition at 30 µg/disc (S. epidermidis LMG 10474; LMG10474, 24 h) | Inhibition zone (S. aureus LMG 8224) | zone of inhibition at 30 µg/disc (S. aureus LMG 8224; LMG8224, 24 h) | IC50 (human skin fibroblasts) | Growth inhibition (S. aureus) | Proliferation of granuloma tissue [3] | zone of inhibition at 30 µg/disc (S. epidermidis LMG 10474; [5]) | zone of inhibition at 30 µg/disc (S. aureus LMG 8224; [6]) | also measured
CC(C)=CC[C@@H](O)C1=CC(=O)c2c(O)ccc(O)c2C1=O [Shikonin, shikonin] | −0.27 ^c | significant decrease in cell number | 10.77 ± 1.07 mm | 14.8 ± 2.12 mm | 11.08 ± 0.26 mm | 12.3 ± 0.64 mm | 1200 ± 100 nM | inhibited the growth | succeeded in accelerating (dose-dependently) the proliferation of granuloma tissue | – | – | In vitro migration [1]: enhanced the in vitro migration; Effect on Hs27 cell viability (Hs27 fibroblasts; 500 nM): significant decrease in cell number
CC(C)=CCC(OC(=O)CC(C)C)C1=CC(=O)c2c(O)ccc(O)c2C1=O (stereo not shown) [Isovaleryl-shikonin, isovaleryl-shikonin] | – | – | – | – | – | – | – | – | – | 11.1 ± 0.94 mm | 9.13 ± 0.51 mm | Proliferation rate ranking (Hs27 fibroblasts; day 3, isovaleryl-shikonin at 500 nM and 1 μM, dimeric A/S at 1 μM): highest proliferation rates
CC(C)=CCCC1=CC(=O)c2c(O)ccc(O)c2C1=O [Deoxy-shikonin, deoxy-shikonin] | 1.08^c | – | – | 13.2 ± 0.22 mm | – | 12.4 ± 0.23 mm | – | – | – | – | – | In vitro migration (keratinocytes): enhanced the in vitro migration
CC(C)=CC[C@H](O)C1=CC(=O)c2c(O)ccc(O)c2C1=O [Alkannin, alkannin] | −0.27 ^c | significant decrease in cell number | 10.69 ± 1.01 mm | 15.2 mm | 10.74 ± 0.74 mm | 12.7 ± 0.58 mm | 1500 ± 100 nM | – | succeeded in accelerating (dose-dependently) the proliferation of granuloma tissue | – | – | viability at 3 days, 0.5 µM [4]: > 110%; Zone of inhibition (S. epidermidis LMG 10474; 30 μg/disc on 8 mm filter paper, 24 h): 15.16 ± 0.66 mm
CC(C)=CCC(OC(=O)C=C(C)C)C1=CC(=O)c2c(O)ccc(O)c2C1=O (stereo not drawn) [β,β-Dimethyl-acryl-shikonin, β,β-dimethyl-acryl-shikonin] | 1.38 ^c | – | – | – | – | – | – | effective | – | 10.6 ± 0.57 mm | 8.98 ± 0.17 mm | Growth inhibition (S. epidermidis): effective
CC(=O)O[C@H](CC=C(C)C)C1=CC(=O)c2c(O)ccc(O)c2C1=O [Acetyl-shikonin, acetyl-shikonin] | 0.66 ^c | – | – | 14.1 ± 1.25 mm | – | 11.9 ± 1.43 mm | – | inhibited the growth | – | – | – | –
